Values joined by “and” are separate entries in the source; they are usually repeats but may differ in a detail not shown here. Identical values can stand only once.
Tests used:
[1] = system: patients diagnosed with Alzheimer-type dementia; experiment: Hasegawa Dementia Scale and symptom observation in patients with Alzheimer-type dementia; type: in vivo, human; settings: for Hasegawa Dementia Scale After 2 months: individual Alzheimer-type dementia patients, EPA-E alone 300 or 600 mg/day for 2 months, scale of 30
Procedure: (§1) Each patient was evaluated for the improvement of the dementia by Hasegawa Dementia Scale at the start of the test, 2 months after the start of the test (2 months from the start of administering ethyl icosapentate), and 6 months after the start of the test (4 months after the start of the combined administration of the ethyl icosapentate and the levothyroxine sodium).

[2] = system: patients diagnosed with cerebrovascular dementia; experiment: Hasegawa Dementia Scale and symptom observation in patients with cerebrovascular dementia (Reference Example); type: in vivo, human; settings: for Hasegawa Dementia Scale After 2 months: individual cerebrovascular dementia patients, EPA-E alone 300 or 600 mg/day for 2 months
Procedure: as §1

Question: Which “Score of the Hasegawa Dementia Scale (range) 2 months after the start of the test” value ([1]; 14 Alzheimer-type dementia patients, EPA-E alone 300-600 mg/day) does the source give for `CC/C=C\C/C=C\C/C=C\C/C=C\C/C=C\CCCC(=O)OCC` [EPA-E, ethyl icosapentate] here?
Answer: (7-17)

Question: What about the “Score of the Hasegawa Dementia Scale (average ± standard deviation) 2 months after the start of the test” value ([1]; 14 Alzheimer-type dementia patients, EPA-E alone 300-600 mg/day, at the start 10.0 ± 3.5) of the same compound?
Answer: 11.4 ± 3.0

Question: And the “Change in the scores of the Hasegawa Dementia Scale, in words” value ([1]; Alzheimer-type dementia patients, sole administration of ethyl icosapentate 300 to 600 mg/day for 2 months)?
Answer: no substantial change

Question: And the “Hasegawa Dementia Scale After 2 months” value ([1]; EPA-E 300 mg/day)?
Answer: 14 and 12 and 11 and 10 and 7 and 9

Question: What about the “Hasegawa Dementia Scale After 2 months” value ([1]; EPA-E 600 mg/day) of the same compound?
Answer: 7 and 8 and 11 (2×) and 17 and 13 and 15 and 14

Question: And the “Score of the Hasegawa Dementia Scale (range) 2 months after the start of the test” value ([2]; 10 cerebrovascular dementia patients, EPA-E alone 300-600 mg/day)?
Answer: (9-15)

Question: What about the “Score of the Hasegawa Dementia Scale (average ± standard deviation) 2 months after the start of the test” value ([2]; 10 cerebrovascular dementia patients, EPA-E alone 300-600 mg/day, at the start 10.4 ± 1.7) of the same compound?
Answer: 11.2 ± 1.9

Question: And the “Hasegawa Dementia Scale After 2 months” value ([2]; EPA-E 300 mg/day)?
Answer: 13 and 10 (2×) and 12

Question: What about the “Hasegawa Dementia Scale After 2 months” value ([2]; EPA-E 600 mg/day) of the same compound?
Answer: 15 and 11 (2×) and 12 and 9 (2×)
